From US4410626A, “Process for the production of 7α-methoxycephalosporin derivatives” (Yamanouchi Pharmaceutical Co. Ltd., priority 1978, dated 1983) come the findings set out here.

Converted amounts (≈) assume the structure as drawn. Some results are limits rather than exact numbers.

The subject of data set [1] is Proteus vulgaris OXK US. In words: Minimum inhibitory concentration, Proteus vulgaris. Type of data set: cell-based.
Data set [2] in a line: Solubility / hygroscopicity of the Na salt (physicochemical properties). The settings on record: for Solubility in methanol, ethanol, ethyl acetate, butyl acetate and other organic solvents: (n-)butanol (not named for compound C).
Data set [3] concerns Klebsiella pnuemoniae ATCC 10031. In words: Minimum inhibitory concentration, Klebsiella pnuemoniae. Type of data set: cell-based. Particulars: ATCC10031.
Data set [4] concerns Salmonella typhi H901W. In words: Minimum inhibitory concentration, Salmonella typhi. Type of data set: cell-based. Particulars: Salmonella enterica, read-out: Minimum inhibitory concentration.
Data set [5] relates to Escherichia coli NIHJ. In words: Minimum inhibitory concentration, Escherichia coli. Type of data set: cell-based.
Data set [6] concerns Proteus mirabilis. In words: Antibacterial activity, plate disc method (diameter of inhibitory circle), Proteus mirabilis. The settings on record: pH 8.0, plate disc method. The class given is cell-based. Also on record: unit not given here. An excerpt: (§1) 3. The antibacterial activities to Proteus mirabilis and Salmonella gallinarum are as follows:
(§2) Peptone 1%, yeast extract 0.1%, agaragar 1%, pH 8.0, plate disc method,
(§3) the numerical values are the diameters of inhibitory circles.

For data set [7], the system named is Shigella boydii IID 627. In words: Minimum inhibitory concentration, Shigella boydii. Type of data set: cell-based. Particulars: IID627.
Data set [8] concerns Bacillus subtilis ATCC 6633. In words: Minimum inhibitory concentration, Bacillus subtilis. Type of data set: cell-based. Particulars: ATCC6633.
Data set [9] concerns Pseudomonas aeruginosa NCTC 10490. In words: Minimum inhibitory concentration, Pseudomonas aeruginosa. Type of data set: cell-based. Particulars: NCTC10490.
The subject of data set [10] is Salmonella enteritidis 1891. In words: Minimum inhibitory concentration, Salmonella enteritidis. Type of data set: cell-based. The settings on record: Salmonella enterica.
The test system of data set [11] is Salmonella gallinarum. In words: Antibacterial activity, plate disc method (diameter of inhibitory circle), Salmonella gallinarum. The class given is cell-based. The settings on record: pH 8.0, plate disc method.
Source text: as §1, §2, §3

Data set [12] has as its system Staphylococcus aureus ATCC 6538F. In words: Minimum inhibitory concentration, Staphylococcus aureus. Type of data set: cell-based. Particulars: ATCC6538F.
The subject of data set [13] is Proteus mirabilis IMFOM9. In words: Minimum inhibitory concentration, Proteus mirabilis. Type of data set: cell-based.

Regarding `CO[C@@]1(NC(=O)CCC[C@@H](N)C(=O)O)C(=O)N2C(C(=O)O)=C(COC(=O)/C=C/c3ccc(OS(=O)(=O)O)cc3)CS[C@@H]21` [Compound (A), 7β-(D-5-Amino-5-carboxyvaleramido)-7α-methoxy-3-(p-sulfooxycinnamoyloxymethyl)-Δ^3-cephem-4-carboxylic acid], the MIC came out at 0.39 µg/mL (≈ 0.619 µM) in data set [1]; 25 µg/mL (≈ 39.7 µM) in data set [3]; 3.13 µg/mL (≈ 4.97 µM) in data set [4]; 6.25 µg/mL (≈ 9.93 µM) in data set [5]; 6.25 µg/mL (≈ 9.93 µM) in [7]; 12.5 µg/mL (≈ 19.9 µM) in data set [8]. The MIC in data set [9] was more than 100 µg/mL; in data set [10], 6.25 µg/mL (≈ 9.93 µM); in data set [12], 100 µg/mL (≈ 159 µM); in data set [13], 0.78 µg/mL (≈ 1.24 µM). Besides, the “Solubility in methanol, ethanol, ethyl acetate, butyl acetate and other organic solvents” value (shortened to “Solubility in methanol, ethanol”) in [2] (ethyl acetate, butyl acetate) is “scarcely”. Also, the Solubility in water entry in data set [2] was “Easily soluble”. Besides, the “diameter of inhibitory circle” value is recorded as 22.3 in [6] (100 γ/ml), 28.7 in data set [6] (500 γ/ml), 17.0 in data set [11] (100 γ/ml) and 21.5 in data set [11] (500 γ/ml).
For the compound `CO[C@@]1(NC(=O)CCC[C@@H](N)C(=O)O)C(=O)N2C(C(=O)O)=C(COC(=O)/C=C/c3ccc(O)cc3)CS[C@@H]21` [Compound (C), 7β-(D-5-amino-5-carboxyvaleramido)-3-(p-hydroxycinnamoyloxymethyl)-7α-methoxy-Δ^3-cephem-4-carboxylic acid], the MIC in [1] worked out at 0.78 µg/mL (≈ 1.42 µM); in [3], 3.13 µg/mL (≈ 5.7 µM); in [4], 12.5 µg/mL (≈ 22.7 µM); in [5] it was 3.13 µg/mL (≈ 5.7 µM); in data set [7], 6.25 µg/mL (≈ 11.4 µM); in data set [8] it was 3.13 µg/mL (≈ 5.7 µM). In addition, the MIC is more than 100 µg/mL in data set [9], 1.56 µg/mL (≈ 2.84 µM) in data set [10], 50 µg/mL (≈ 91 µM) in [12] and 0.78 µg/mL (≈ 1.42 µM) in data set [13]. Moreover, the “Solubility in methanol, ethanol” value in data set [2] (ethyl acetate, butyl acetate) is on record as “scarcely soluble”. Besides, the Solubility in water result in [2] is listed as “Easily soluble”. For the same compound, the “diameter of inhibitory circle” value in data set [6] (100 γ/ml) is on record as 22.0; in [6] (500 γ/ml), 27.8; in data set [11] (100 γ/ml), 15.1; in [11] (500 γ/ml), 20.0.
As to `COC(=Cc1ccc(OS(=O)(=O)O)cc1)C(=O)OCC1=C(C(=O)O)N2C(=O)[C@](NC(=O)CCC[C@@H](N)C(=O)O)(OC)[C@H]2SC1` [Comp. a, reference compound], the MIC was found to be 1.56 µg/mL (≈ 2.36 µM) in data set [1]; 50 µg/mL (≈ 75.8 µM) in data set [3]; 25 µg/mL (≈ 37.9 µM) in [4]; 25 µg/mL (≈ 37.9 µM) in data set [5]; 25 µg/mL (≈ 37.9 µM) in data set [7]; 50 µg/mL (≈ 75.8 µM) in data set [8]. Further, the MIC in data set [9] was more than 100 µg/mL; in [10] it was 25 µg/mL (≈ 37.9 µM); in data set [12], more than 100 µg/mL; in data set [13], 6.25 µg/mL (≈ 9.47 µM).
As to `COC(=Cc1ccc(O)cc1)C(=O)OCC1=C(C(=O)O)N2C(=O)[C@](NC(=O)CCC[C@@H](N)C(=O)O)(OC)[C@H]2SC1` [Comp. b, reference compound], the MIC in [1] is 6.25 µg/mL (≈ 10.8 µM); in data set [3] it was 25 µg/mL (≈ 43.1 µM); in data set [4] it was 50 µg/mL (≈ 86.3 µM); in data set [5], 12.5 µg/mL (≈ 21.6 µM); in data set [7] it was 50 µg/mL (≈ 86.3 µM); in [8] it was 6.25 µg/mL (≈ 10.8 µM). Also, the MIC in data set [9] is more than 100 µg/mL; in data set [10], 12.5 µg/mL (≈ 21.6 µM); in data set [12], 100 µg/mL (≈ 173 µM); in data set [13], 6.25 µg/mL (≈ 10.8 µM).
`CO[C@@]1(NC(=O)CCCC(N)C(=O)O)C(=O)N2C(C(=O)O)=C(CSc3nnnn3C)CS[C@@H]21` (some centres unmarked) [Y-G19Z-G, 7(5-amino-5-carboxyvaleramido)-7-methoxy-3-(1-methyl-1H-tetrazol-5-yl)thimethyl-Δ^3cephem-4-carboxylic acid, reference compound]: the “diameter of inhibitory circle” value in [6] (100 γ/ml) worked out at 21.6; in data set [6] (500 γ/ml), 27.0; in [11] (100 γ/ml) it was 18.5; in data set [11] (500 γ/ml), 21.5.
As for `CO[C@@]1(NC(=O)CCCC(=O)O)C(=O)N2C(C(=O)O)=C(COC(=O)/C=C/c3ccc(O)cc3)CS[C@@H]21` [Compound (D), 7β-(4-carboxybutyramido)-3-(p-hydroxycinnamoyloxymethyl)-7α-methoxy-Δ^3-cephem-4-carboxylic acid], the MIC in [1] was determined as 3.13 µg/mL (≈ 6.01 µM); in [3], 12.5 µg/mL (≈ 24 µM); in [4] it was 25 µg/mL (≈ 48 µM); in data set [5], 6.25 µg/mL (≈ 12 µM); in data set [7], 12.5 µg/mL (≈ 24 µM); in [8], 100 µg/mL (≈ 192 µM). Moreover, the MIC in [9] was more than 100 µg/mL; in data set [10], 25 µg/mL (≈ 48 µM); in [12], 50 µg/mL (≈ 96.1 µM); in data set [13] it was 6.25 µg/mL (≈ 12 µM). For the same compound, in data set [2], the Hygroscopicity result is on record as “Very hygroscopic”. The “Solubility in ethyl acetate, butyl acetate, n-butanol and other organic solvents” value in data set [2] (ethyl acetate, butyl acetate, n-butanol and other organic solvents) is “scarcely soluble”. Moreover, the “Solubility in methanol and ethanol” value in [2] (methanol and ethanol) is recorded as “slightly soluble”. Moreover, the Solubility in water entry in [2] was “Easily soluble”. Also, the “diameter of inhibitory circle” value in [6] (100 γ/ml) stood at 18.0; in data set [6] (500 γ/ml) it was 27.7; in data set [11] (100 γ/ml), 11.5; in [11] (500 γ/ml) it was 16.2.
On to `CO[C@@]1(NC(=O)CCCC(=O)O)C(=O)N2C(C(=O)O)=C(COC(=O)/C=C/c3ccc(OS(=O)(=O)O)cc3)CS[C@@H]21` [Compound (B), 7β-(4-Carboxybutyramido)-7α-methoxy-3-(p-sulfooxycinnamoyloxymethyl)-Δ^3-cephem-4-carboxylic acid], for which the MIC in data set [1] stood at 6.25 µg/mL (≈ 10.4 µM); in [3], 25 µg/mL (≈ 41.6 µM); in [4], 50 µg/mL (≈ 83.3 µM); in data set [5], 6.25 µg/mL (≈ 10.4 µM); in data set [7], 25 µg/mL (≈ 41.6 µM); in data set [8], 100 µg/mL (≈ 167 µM). For the same compound, the MIC in data set [9] is more than 100 µg/mL; in data set [10], 50 µg/mL (≈ 83.3 µM); in data set [12] it was 100 µg/mL (≈ 167 µM); in data set [13] it was 12.5 µg/mL (≈ 20.8 µM). In data set [2] (ethyl acetate, butyl acetate), the “Solubility in methanol, ethanol” value is “scarcely soluble”. Further, in data set [2], the Solubility in water result is on record as “Easily soluble”. The “diameter of inhibitory circle” value in [6] (100 γ/ml) turned out to be 17.6; in [6] (500 γ/ml), 27.2; in data set [11] (100 γ/ml) it was 14.2; in data set [11] (500 γ/ml), 18.3.
As for `CO[C@@]1(NC(=O)CCCC(=O)O)C(=O)N2C(C(=O)O)=C(CSc3nnnn3C)CS[C@@H]21` [Y-G19Z-GG, 7(4-carboxybutyramido)-7-methoxy-3-(1-methyl-1H-tetrazol-5-yl)thio-methylΔ^3cephem-4-carboxylic acid, reference compound], the “diameter of inhibitory circle” value in data set [6] (500 γ/ml) was determined as 19.0; in [11] (500 γ/ml), 16.0.
